The results in this text go back to patent US10532985B2, “Heterocycle and carbocycle derivatives having TRKA inhibitory activity” (Shionogi & Co., Ltd., priority 2014, dated 2020).

In the first test the target is T1, human TrkA (Homo sapiens, UniProt P04629).
T1 construct: purchased Lifetechnologies PV3144
T1 sequence (P04629 33-796): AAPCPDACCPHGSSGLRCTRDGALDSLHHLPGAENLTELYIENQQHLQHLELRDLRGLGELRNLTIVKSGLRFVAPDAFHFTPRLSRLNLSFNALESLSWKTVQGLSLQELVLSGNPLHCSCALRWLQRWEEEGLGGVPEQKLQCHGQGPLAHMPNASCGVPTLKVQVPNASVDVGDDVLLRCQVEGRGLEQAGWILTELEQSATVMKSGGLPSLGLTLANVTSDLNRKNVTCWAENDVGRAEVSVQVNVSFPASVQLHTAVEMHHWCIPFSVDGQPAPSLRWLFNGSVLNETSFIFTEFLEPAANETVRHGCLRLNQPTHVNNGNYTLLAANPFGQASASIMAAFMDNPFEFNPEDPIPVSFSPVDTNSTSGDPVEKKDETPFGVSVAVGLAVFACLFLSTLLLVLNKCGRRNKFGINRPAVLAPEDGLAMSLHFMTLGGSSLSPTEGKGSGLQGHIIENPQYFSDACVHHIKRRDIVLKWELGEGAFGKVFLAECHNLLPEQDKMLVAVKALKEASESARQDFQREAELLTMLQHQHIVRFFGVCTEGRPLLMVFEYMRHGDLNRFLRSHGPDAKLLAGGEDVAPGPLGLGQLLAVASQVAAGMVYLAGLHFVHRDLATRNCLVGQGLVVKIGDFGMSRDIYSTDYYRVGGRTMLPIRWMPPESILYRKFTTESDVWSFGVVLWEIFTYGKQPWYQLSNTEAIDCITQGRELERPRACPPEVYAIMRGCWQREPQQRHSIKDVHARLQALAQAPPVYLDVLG
Kind of test: Test Example 2: Human TrkA Inhibition Assay. It counts as biochemical. Particulars: Test Example 2; human TrkA 2.5 nmol/L, ATP 500 μmol/L, 90 min at room temperature; read-out: TrkA inhibitory activity IC50. As to the method:
After the incubation for 90 min at room temperature, ten μL of termination buffer (100 mmol/L HEPES, 40 mmol/L ethylenediaminetetraacetic acid (EDTA), 10 mmol/L magnesium chloride, 0.003 vol % Brij-35, 0.004 vol % Tween20, 1 mmol/L DTT and 0.16 vol % Coating Reagent 3) was added in each well to stop the enzyme reaction. Fluorescent intensities (FI) of phosphorylated and non-phosphorylated fluorescent substrates were measured by LabChip EZReader II (Caliper LifeSciences, Inc.) and conversion ratio (CR) was calculated by the following formula-1. The CR in the well applied with DMSO alone was used as a negative control and the CR in the well without applying TrkA was used as a positive control. The inhibitory effect of each compound on TrkA phosphorylation was calculated by the following formula-2. CR (%)=(FI of phosphorylated substrate/(FI of phosphorylated substrate+FI of non-phosphorylated substrate))×100 (Formula-1) Inhibitory effect on TrkA phosphorylation (%)=(1−(CR in compound treated well−CR in positive control)/(CR in negative control−CR in positive control))×100. (Formula-2)
In the case of `Cc1c(-c2cnn(C)c2)nn(-c2ccccc2)c1NC(=O)N[C@@H]1CN(CC2(C)COC2)C[C@H]1c1ccc(F)c(F)c1` [Compound I-142], the IC50 came to 1300 nM. As to `COCC(CC#N)N1C[C@@H](NC(=O)Nc2c(C)c(-c3cnn(C)c3)nn2-c2ccccc2)[C@H](c2ccc(F)c(F)c2)C1` (some centres unmarked) [Compound I-93], the IC50 is 21 nM. In the case of `COCC(CSC)N1C[C@@H](NC(=O)Nc2c(C)c(-c3cnn(C)c3)nn2-c2ccccc2)[C@H](c2ccc(F)c(F)c2)C1` (some centres unmarked) [Compound I-130], the IC50 came to 460 nM.

Consider `Cc1c(-c2cnn(C)c2)nn(-c2ccccc2)c1NC(=O)N[C@@H]1CC(O)C[C@H]1c1ccccc1` (some centres unmarked) [Compound I-168], for which the IC50 turned out to be 7000 nM.

The same test, now with this note: human TrkA inhibition, Test Example 2; class symbols A/B/C; read-out: IC50_nM.
Consider `COCCN1C[C@@H](NC(=O)Nc2c(C)c(OCC(C)(C)O)nn2-c2ccccc2)[C@H](C2CCCCC2)C1` (racemic) [Compound I-10], for which the IC50 was > 1000 nM.

In the case of `COCCN1C[C@@H](NC(=O)Nc2c(C)c(-c3cnn(C)c3)nn2-c2ccccc2)[C@H](c2cccc(N(C)C)c2)C1` (racemic) [Compound I-171], the IC50 was > 1000 nM. For `Cc1c(-c2cnn(C)c2)nn(-c2ccccc2)c1NC(=O)N[C@@H]1CN(C2CCOC2)C[C@H]1c1ccc(F)c(F)c1` (some centres unmarked) [Compound I-39], the IC50 was > 1000 nM. Same read-out and setting: in the case of `COCCN1C[C@@H](NC(=O)Nc2c(C)c(-c3cnn(C)c3)nn2-c2ccccc2)[C@H](c2cccc(/C=C/c3ccccc3)c2)C1` (racemic) [Compound I-49] it was < 100 nM. On the same count and under the same terms, in the case of `Cc1c(-c2cnn(C)c2)nn(-c2ccccc2)c1NC(=O)N[C@@H]1CN(CC2CCCO2)C[C@H]1c1ccc(F)c(F)c1` (some centres unmarked) [Compound I-24] it was 100 to 1000 nM; in that of `Cc1c(-c2cnn(C)c2)nn(-c2ccccc2)c1NC(=O)N[C@@H]1CN(Cc2nccn2C)C[C@H]1c1ccc(F)c(F)c1` [Compound I-159], > 1000 nM; in that of `Cc1c(-c2cnn(C)c2)nn(-c2ccccc2)c1NC(=O)N[C@@H]1CN(CO)C[C@H]1c1ccc(F)c(F)c1` (racemic) [Compound I-67], > 1000 nM. On to `Cc1c(-c2cnn(C)c2)nn(-c2ccccc2)c1NC(=O)N[C@@H]1CN(CCNS(C)(=O)=O)C[C@H]1c1ccc(F)c(F)c1` [Compound I-42], for which the IC50 is 100 to 1000 nM.

Regarding `COC1CCCCC1N1C[C@@H](NC(=O)Nc2c(C)c(-c3cnn(C)c3)nn2-c2ccccc2)[C@H](c2ccc(F)c(F)c2)C1` (some centres unmarked) [Compound I-176], the IC50 was > 1000 nM.

With `COC(=O)NCCN1C[C@@H](NC(=O)Nc2c(C)c(-c3cnn(C)c3)nn2-c2ccccc2)[C@H](c2ccc(F)c(F)c2)C1` [Compound I-41], the IC50 was > 1000 nM. In the case of `Cc1c(-c2cnn(C)c2)nn(-c2ccccc2)c1NC(=O)N[C@@H]1CC2(CC(O)C2)C[C@H]1c1ccccc1` (mixture of isomers) [Compound I-172], the IC50 is > 1000 nM.

As to `Cc1c(-c2cnn(C)c2)nn(-c2ccccc2)c1NC(=O)NC1CNCCC1c1ccc(F)c(F)c1` (centres unmarked) [Compound I-2], the IC50 is > 1000 nM. On the same count and under the same terms, in the case of `COCC[C@H]1C[C@@H](NC(=O)Nc2c(C)c(-c3cnn(C)c3)nn2-c2ccccc2)[C@H](c2ccccc2)C1` [Compound I-95] it was < 100 nM; in that of `COCC(CNC(C)=O)N1C[C@@H](NC(=O)Nc2c(C)c(-c3cnn(C)c3)nn2-c2ccccc2)[C@H](c2ccc(F)c(F)c2)C1` (some centres unmarked) [Compound I-112], 100 to 1000 nM; in that of `COCCN1C[C@@H](NC(=O)Nc2c(C)c(-c3cnn(C)c3)nn2-c2ccccc2)[C@H](c2nc3ccccc3s2)C1` (racemic) [Compound I-153], > 1000 nM.

Take `CCOC(=O)C=C1C[C@@H](NC(=O)Nc2c(C)c(-c3cnn(C)c3)nn2-c2ccccc2)[C@H](c2ccccc2)C1` [Compound I-126]: the IC50 was 100 to 1000 nM. `COCCN1C[C@@H](NC(=O)Nc2c(C)c(-c3cnn(C)c3)nn2-c2ccccc2)[C@H](c2cccc3c2OCO3)C1` (racemic) [Compound I-75]: the IC50 was in the range of 100 to 1000 nM. For the compound `COCC(CNS(C)(=O)=O)N1C[C@@H](NC(=O)Nc2c(C)c(-c3cnn(C)c3)nn2-c2ccccc2)[C@H](c2ccc(F)c(F)c2)C1` (some centres unmarked) [Compound I-140], the IC50 fell in the range of 100 to 1000 nM.

On to `Cc1c(-c2cnn(C)c2)nn(-c2ccccc2)c1NC(=O)N[C@@H]1CN(Cc2ccccc2)C[C@H]1C1CCCCC1` (racemic) [Compound I-18], for which the IC50 was > 1000 nM. For `CCON=C1C[C@@H](NC(=O)Nc2c(C)c(-c3cnn(C)c3)nn2-c2ccccc2)[C@H](c2ccccc2)C1` [Compound I-120], the IC50 lay in the range of 100 to 1000 nM.

Regarding `CCOC(=O)CC1C[C@@H](NC(=O)Nc2c(C)c(-c3cnn(C)c3)nn2-c2ccccc2)[C@H](c2ccccc2)C1` (some centres unmarked) [Compound I-124], the IC50 fell in the range of 100 to 1000 nM. With `COCCN1CCC(c2ccc(F)c(F)c2)C(NC(=O)Nc2c(C)c(-c3cnn(C)c3)nn2-c2ccccc2)C1` (centres unmarked) [Compound I-4], the IC50 was > 1000 nM. On to `COCC(CN)N1C[C@@H](NC(=O)Nc2c(C)c(-c3cnn(C)c3)nn2-c2ccccc2)[C@H](c2ccc(F)c(F)c2)C1` (some centres unmarked) [Compound I-131], for which the IC50 fell in the range of 100 to 1000 nM. Same read-out and setting: to `COCCN1C[C@@H](NC(=O)Nc2c(C)c(-c3cnn(C)c3)nn2-c2ccccc2)[C@H](c2ccc3oc(=O)[nH]c3c2)C1` (racemic) [Compound I-149] belongs > 1000 nM; to `C=C1C[C@@H](NC(=O)Nc2c(C)c(-c3cnn(C)c3)nn2-c2ccccc2)[C@H](c2ccc(F)cc2)C1` (racemic) [Compound I-65], < 100 nM. Take `COC1CC2(C1)C[C@@H](NC(=O)Nc1c(C)c(-c3cnn(C)c3)nn1-c1ccccc1)[C@H](c1ccccc1)C2` (mixture of isomers) [Compound I-170]: the IC50 is > 1000 nM. In the case of `COCC(C(=O)N(C)C)N1C[C@@H](NC(=O)Nc2c(C)c(-c3cnn(C)c3)nn2-c2ccccc2)[C@H](c2ccc(F)c(F)c2)C1` (some centres unmarked) [Compound I-174], the IC50 is > 1000 nM.

Consider `COCCN1C[C@@H](NC(=O)Nc2c(C)c(-c3cnn(C)c3)nn2-c2ccccc2)[C@H](c2cccc(C(=O)OC)c2)C1` (racemic) [Compound I-19], for which the IC50 was > 1000 nM. On the same count and under the same terms, in the case of `COCOCCN1C[C@@H](NC(=O)Nc2c(C)c(-c3cnn(C)c3)nn2-c2ccccc2)[C@H](c2ccc(F)c(F)c2)C1` [Compound I-80] it was 100 to 1000 nM. For `Cc1c(-c2cnn(C)c2)nn(-c2ccccc2)c1NC(=O)N[C@@H]1CN(C#N)C[C@H]1c1ccc(F)c(F)c1` [Compound I-173], the IC50 is > 1000 nM. Same read-out and setting: in the case of `Cc1c(-c2cnn(C)c2)nn(-c2ccccc2)c1NC(=O)N[C@@H]1CN(C2COC2)C[C@H]1c1ccc(F)c(F)c1` [Compound I-37] it was 100 to 1000 nM; in that of `COCCN1C[C@@H](NC(=O)Nc2c(C)c(-c3cnn(C)c3)nn2-c2ccccc2)[C@H](c2cccc(-c3cccnc3)c2)C1` (racemic) [Compound I-56], > 1000 nM; in that of `COCC(C(=O)N(C)OC)N1C[C@@H](NC(=O)Nc2c(C)c(-c3cnn(C)c3)nn2-c2ccccc2)[C@H](c2ccc(F)c(F)c2)C1` (some centres unmarked) [Compound I-169], > 1000 nM. In the case of `Cc1c(-c2cnn(C)c2)nn(-c2ccccc2)c1NC(=O)N[C@@H]1CN(CCS(C)(=O)=O)C[C@H]1c1ccc(F)c(F)c1` [Compound I-46], the IC50 was > 1000 nM.

Take `CCOC1CC(N2C[C@@H](NC(=O)Nc3c(C)c(-c4cnn(C)c4)nn3-c3ccccc3)[C@H](c3ccc(F)c(F)c3)C2)C1` (some centres unmarked) [Compound I-160]: the IC50 was > 1000 nM.

Take `COCC(CCO)N1C[C@@H](NC(=O)Nc2c(C)c(-c3cnn(C)c3)nn2-c2ccccc2)[C@H](c2ccc(F)c(F)c2)C1` (some centres unmarked) [Compound I-105]: the IC50 was < 100 nM. The same measure, in the same setting: to `COCCN1C[C@@H](NC(=O)Nc2c(C)c(-c3cnn(C)c3)nn2-c2ccccc2)[C@H](c2cccc(-c3cn[nH]c3)c2)C1` (racemic) [Compound I-175] belongs > 1000 nM; to `COCCC1C[C@@H](NC(=O)Nc2c(C)c(-c3cnn(C)c3)nn2-c2ccccc2)[C@H](c2ccccc2)C1` (some centres unmarked) [Compound I-85], < 100 nM; to `COCCN1C[C@@H](NC(=O)Nc2c(C)c(-c3cnn(C)c3)nn2-c2ccccc2)[C@H](c2ccc3ccccc3c2)C1` (racemic) [Compound I-104], < 100 nM.

For `Cc1c(-c2cnn(C)c2)nn(-c2ccccc2)c1NC(=O)N[C@@H]1C[C@@H](C)N(C)[C@H]1c1ccc(F)c(F)c1` (racemic) [I 78], the IC50 was > 1000 nM. As to `COCCN1C[C@@H](NC(=O)Nc2c(C)c(-c3cnn(C)c3)nn2-c2ccccc2)[C@H](c2cccc(C(N)=O)c2)C1` (racemic) [Compound I-21], the IC50 is > 1000 nM.

As for `CC(=O)NCCN1C[C@@H](NC(=O)Nc2c(C)c(-c3cnn(C)c3)nn2-c2ccccc2)[C@H](c2ccc(F)c(F)c2)C1` [Compound I-40], the IC50 was > 1000 nM. `Cc1c(-c2cnn(C)c2)nn(-c2ccccc2)c1NC(=O)N[C@@H]1CC(C)(O)C[C@H]1c1ccccc1` (some centres unmarked) [Compound I-154]: the IC50 is > 1000 nM. The same measure, in the same setting: in the case of `COCCN1C[C@@H](NC(=NOC)Nc2c(C)c(-c3cnn(C)c3)nn2-c2ccccc2)[C@H](c2ccccc2)C1` [Compound I-144] it was > 1000 nM; in that of `COCCN1C[C@@H](NC(=O)Nc2c(C)c(-c3cnn(C)c3)nn2-c2ccccc2)[C@H](c2cccc(-c3cccc(C(=O)OC)c3)c2)C1` (racemic) [Compound I-57], 100 to 1000 nM; in that of `Cc1c(-c2cnn(C)c2)nn(-c2ccccc2)c1NC(=O)N[C@@H]1CN(C(CO)c2ccco2)C[C@H]1c1ccc(F)c(F)c1` (some centres unmarked) [Compound I-108], < 100 nM.
